Source: patent publication US20160045498A1, “METHODS OF TREATING DISEASES CHARACTERIZED BY EXCESSIVE WNT SIGNALLING” (THE WALTER AND ELIZA HALL INSTITUTE OF MEDICAL RESEARCH, priority 2013, published 2016)

How the values were obtained:
intestinal tumours = assay: Intestinal tumour burden after tamoxifen-induced conditional Apc deletion in Lgr5CreERT2;Apcfl/fl mice; assay type: in vivo; settings: Lgr5CreERT2;Apcfl/fl mice, CYT387 30 mg/kg oral gavage
Method: e Quantification of intestinal tumour burden of mice using the Metamorph analysis tool (Barker et al., 2009) after tamoxifen-induced conditional Apc deletion in adult Lgr5^CreERT2;Apc^fl/fl mice that also received daily administration of AZD1480 (30 mg/kg) or vehicle during this time. (*p≦0.04; n=3 mice).
d Intestinal tumour burden 5 weeks after tamoxifen-induced conditional Apc deletion in adult Lgr5^CreERT2;Apc^fl/fl mice that also received daily administration of AZD1480 (Jak2i; 30 mg/kg) or vehicle during this time. Higher magnifications of the boxed areas are provided and arrows point to tubular adenomas whilst arrowheads point to micro-adenomas. Scale bars=1 mm.
10 week old Lgr5CreERT2;Apcfl/fl mice received four i.p injections with tamoxifen (10 mg/ml; 300 ul, 200 ul, 200 ul, 200 ul) over four consecutive days. Three days after the last injection, mice received daily oral gavages with either vehicle (tap water, pH 2.0) or CYT387 (30 mg/kg) for four weeks. Regime was 5 days treatment followed by 2 days off treatment.
Hematoxilin and Eosin-stained sections were scanned using an Aperio ScanScope XT (Aperio, USA) pathology slide scanner with a 20x PlanApo NA0.6 objective and areas of interest were extracted using Aperio ImageScope software v11.1.2.760. The area of individual tumors was outlined using MetaMorph v7.7.7 and standardized against the entire length of the colon section as described (Barker et al., 2009).

TYK2 = TYK2 (Homo sapiens, UniProt P29597); settings: WO2012062704; cited from earlier work
SW480^APC cells [1] = assay: Soft agar colony growth assay, SW480APC; assay type: cell-based, human; settings: 10 days, AZD1480 1 μM, S3I-201 50 μM, IL11 10 ng/ml
Method: (§1) e Photograph of SW480 and SW480^APC CRC cells grown for 10 days under colony forming conditions in soft agar in the presence of vehicle or 1 μM of Jak2 inhibitor AZD1480 (Jak2i) (Scale bar=200 μm)
(§2) f Colony forming capacity of an isogenic pair of SW480 cells scored 10 days after the indicated treatment. (*p≦0.04; triplicate cultures and repeated).
(§3) SW480 and SW480^APC cells (Faux et al., 2004) were seeded in 2 ml of RPMI media supplemented with 10% FBS and 1% penicillin/streptomycin in 35 mm culture dishes at a density of 2×10^5 cells per dish. Three days later cultures were exposed to AZD1480 (1 μM) for 15 min. Co-immunofluorescence was then performed with antibodies to rabbit phospho-Stat3 (Tyr705, Santa Cruz #9134s, 1:200 dilution) and mouse β-catenin (Transduction Laboratories, 1:400). Colony formation assays of SW480 cells in soft agar were performed as described (Faux et al., 2004) in the presence of either AZD1480, (1 μM), the Stat3 inhibitor S3I-201 (Biovision, 50 μM) or recombinant human IL11 (Genetics Institute, 10 ng/ml). All experiments were performed in triplicates and repeated at least once. Vehicle was methylcellulose.

intestinal organoids = assay: Organoid culture, crypt formation; assay type: cell-based, mice; settings: S3I-201 7.5 μM from day 3 after seeding
Method: […] Arrows point to budding crypt-like structures. Scale bar=50 μm.
d Enumeration of crypts on individual organoids from experiment illustrated in FIG. 1c. (*p≦0.018; Two-sided t-test on triplicate cultures and repeated).
Crypts from small intestines were harvested, washed and were resuspended at 2000 crypts/ml of matrigel (BD Biosciences) and 50 μL was dispensed in each well of a 24-well plate. Once the matrigel had set, medium was added and the organoids cultured for seven days as described (Sato et al., 2009). Experiments were performed in triplicates and repeated.
Organoid cultures were imaged on a Nikon Ti-E microscope using DIC contrast with a 10x PlanApo NA0.3 objective. A focal stack of images was collected (10 μm apart) and processed through the Best Focus function of MetaMorph v7.7.7 (Molecular Devices, USA) to generate the final image of individual Organoids.

SW480 cells [2] = assay: Soft agar colony growth assay, SW480; assay type: cell-based, human; settings: SW480, 10 days; AZD1480 1 μM, S3I-201 50 μM, IL11 10 ng/ml
Method: as §1, §2, §3

IECs = assay: RT-qPCR of IECs after i.p. injection of recombinant IL-11; assay type: in vivo; settings: gp130^F/F mice, 30 minutes after i.p. 5 μg recombinant IL-11
Method: a RT-qPCR expression analysis for Socs3 and Bmi1 in IECs isolated from gp130^F/F mice 30 minutes after an i.p. injection of 5 μg of recombinant IL-11 (p=0.04; n=3 mice).
(§4) Gene expression analysis by RT-qPCR was performed using the SybrGreen method (ABI) as described previously (Phesse et al., 2008). Fold change was calculated using the 2^−ΔΔCT method (Livak et al., 2001). Protein expression was analysed by Western blot by transferring SDS-PAGE separated protein lysates to nitrocellulose membrane and blocked either in 5% non-fat milk powder and probed with antibodies detecting p16 (Santa Cruz; #sc-467), Bmi1 (Millipore #[…]), Actin (Sigma; #A2066) or Gapdh (Santa Cruz; #sc-69778). All antibodies were diluted 1:1000 in BSA or non-fat milk powder and incubations were performed overnight.

SW480 cells [3] = assay: p-STAT3 / β-CATENIN immunofluorescence and SOCS3 RT-qPCR in SW480 cells; assay type: cell-based, human; settings: SW480, RT-qPCR; AZD1480 1 μM, IL11 10 ng/ml
Method: (§5) d Immunofluorescence staining for β-CATENIN or tyrosine-705 phosphorylated STAT3 in an isogenic pair of SW480 cells grown in the presence of 1 μM AZD1480 (Jak2i) or vehicle. SW480 cells are APC mutant and lack expression of functional APC protein, while SW480^APC cells have been reconstituted to express wild-type APC. Scale bar=20 μm.
(§6) g RT-qPCR expression analysis for the STAT3 target gene SOCS3 in SW480 and SW480^APC CRC cells grown for 10 days under colony forming conditions in soft agar in the presence of the indicated treatment. Expression in the vehicle-treated cultures was arbitrarily set as 1. (*p≦0.04; triplicate cultures in each of two repeats).
as §3, §4

SW480^APC cells [4] = assay: p-STAT3 immunofluorescence and SOCS3 RT-qPCR in SW480APC cells; assay type: cell-based, human; settings: RT-qPCR, AZD1480 1 μM, IL11 10 ng/ml
Method: as §5, §6, §3, §4

Sequence of TYK2 (P29597 whole entry, species assumed): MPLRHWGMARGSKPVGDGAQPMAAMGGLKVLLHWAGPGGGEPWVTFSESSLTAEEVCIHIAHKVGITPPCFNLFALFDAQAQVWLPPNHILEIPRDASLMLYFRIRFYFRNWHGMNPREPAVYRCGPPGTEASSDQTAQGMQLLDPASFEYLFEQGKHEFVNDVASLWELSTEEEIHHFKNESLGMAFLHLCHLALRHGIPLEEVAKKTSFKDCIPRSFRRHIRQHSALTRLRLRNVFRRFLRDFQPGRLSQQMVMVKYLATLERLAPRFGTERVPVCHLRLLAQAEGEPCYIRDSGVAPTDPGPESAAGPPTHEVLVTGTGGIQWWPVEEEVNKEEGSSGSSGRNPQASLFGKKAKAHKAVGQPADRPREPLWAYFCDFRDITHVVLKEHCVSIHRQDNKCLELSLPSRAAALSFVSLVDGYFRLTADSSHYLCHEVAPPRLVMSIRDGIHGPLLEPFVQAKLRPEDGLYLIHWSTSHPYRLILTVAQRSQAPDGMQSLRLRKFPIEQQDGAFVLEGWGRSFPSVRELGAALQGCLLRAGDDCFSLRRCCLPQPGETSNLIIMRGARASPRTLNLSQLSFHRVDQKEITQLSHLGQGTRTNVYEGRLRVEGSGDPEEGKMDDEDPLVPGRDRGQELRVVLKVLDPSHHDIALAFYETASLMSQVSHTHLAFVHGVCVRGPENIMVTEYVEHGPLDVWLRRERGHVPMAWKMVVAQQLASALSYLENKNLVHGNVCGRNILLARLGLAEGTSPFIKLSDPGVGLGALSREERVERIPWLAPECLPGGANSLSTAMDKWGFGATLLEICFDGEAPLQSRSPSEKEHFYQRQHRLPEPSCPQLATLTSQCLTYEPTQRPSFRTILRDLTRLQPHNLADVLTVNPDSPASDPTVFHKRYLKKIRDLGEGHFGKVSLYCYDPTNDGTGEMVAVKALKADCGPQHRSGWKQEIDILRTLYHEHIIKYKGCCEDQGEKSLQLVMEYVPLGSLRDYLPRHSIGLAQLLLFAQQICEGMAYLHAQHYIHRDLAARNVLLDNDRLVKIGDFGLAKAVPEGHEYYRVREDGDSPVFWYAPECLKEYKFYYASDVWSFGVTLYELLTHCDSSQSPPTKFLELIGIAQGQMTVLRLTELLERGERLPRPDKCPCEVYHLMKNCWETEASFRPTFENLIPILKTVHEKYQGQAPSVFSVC

In the case of `N#CCNC(=O)c1ccc(-c2ccnc(Nc3ccc(N4CCOCC4)cc3)n2)cc1` [CYT387], the morphology of lesions (intestinal tumours; 4 weeks) is reported as “retained the morphology of the growth arrested microadenomas” and the “intestinal tumour burden (histological assessment)” value (intestinal tumours; 4 weeks (5 days on, 2 off), vehicle: large tubular adenomas) is reported as “few small emerging lesion”.

For `COc1ccc(-c2nc(NC(=O)C3CC3)ncc2C)cc1F`, the “selectivity for TYK2” value (TYK2) is given as greater than 100 fold.

With `Cc1ccc(S(=O)(=O)OCC(=O)Nc2ccc(C(=O)O)c(O)c2)cc1` [S3I-201] the “colony formation in soft agar” value (SW480^APC cells [1]) was “did not affect colony formation”, the “crypt formation of organoids” value (intestinal organoids) was “reduced” and the “colony formation in soft agar” value (SW480 cells [2]) was “strongly impaired”.

B1: IL-11: recombinant gp130 cytokine IL-11 (Genetics Institute) (protein, UniProt P20809 22-199, looked up)
Interleukin-11: PGPPPGPPRVSPDPRAELDSTVLLTRSLLADTRQLAAQLRDKFPADGDHNLDSLPTLAMSAGALGALQLPGVLTRLRADLLSYLRHVQWLRRAGGSSLKTLEPELGTLQARLDRLLRRLQLLMSRLALPQPPPDPPAPPLAPPSSAWGGIRAAHAILGGLHLTLDWAVRGLLLLKTRL
With B1 the “Bmi1 expression in IECs” value (IECs) was “rapidly induced”, the “Socs3 expression in IECs” value (IECs) was “rapidly induced” and the “colony formation in soft agar” value (SW480^APC cells [1]) was “enhanced colony formation”. For the same molecule, the SOCS3 expression (SW480 cells [3]) was “increased SOCS3 expression”, the “colony formation in soft agar” value (SW480 cells [2]) was “enhanced colony formation” and the SOCS3 expression (SW480^APC cells [4]) was “increased SOCS3 expression”.
